Data reported in US8959984B2, “Proteome-wide quantification of small molecule binding to cellular target proteins” (priority 2007, dated 2015).

Experiments:
Test in all cases: binding to VI16742 beads (HeLa lysate, SILAC MS)
CDK4 (IPI00007811) = target: T1, CDK4 (IPI00007811) (Homo sapiens, UniProt P11802)
T1 construct: endogenous in cells; host or cells: HeLa S3
Procedure, shortened: (§1)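 First, lysate proteins are exposed to beads bearing the pyrido[2,3-d]pyrimidine-based inhibitor. Next, specifically retained proteins are identified.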

[1] = target: T2, MSK1 (RPS6KA5, IPI00335101) (Homo sapiens, UniProt O75582)
T2 construct: endogenous in cells; host or cells: HeLa S3
Procedure, shortened: as §1

[2] = target: T3, PHKg2 (PHKG2, IPI00012891) (Homo sapiens, UniProt P15735)
T3 construct: endogenous in cells; host or cells: HeLa S3
T3 sequence (P15735 1-406): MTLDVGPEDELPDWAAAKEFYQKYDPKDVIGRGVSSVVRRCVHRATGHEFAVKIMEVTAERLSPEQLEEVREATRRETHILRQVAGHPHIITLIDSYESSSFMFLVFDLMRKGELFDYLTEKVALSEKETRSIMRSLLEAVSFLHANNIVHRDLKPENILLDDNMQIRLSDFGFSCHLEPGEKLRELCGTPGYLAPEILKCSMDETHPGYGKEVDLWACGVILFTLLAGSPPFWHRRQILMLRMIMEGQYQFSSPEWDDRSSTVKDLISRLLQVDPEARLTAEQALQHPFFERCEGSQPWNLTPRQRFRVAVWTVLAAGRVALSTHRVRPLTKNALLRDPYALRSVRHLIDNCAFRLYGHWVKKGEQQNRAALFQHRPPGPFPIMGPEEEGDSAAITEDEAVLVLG
Procedure, shortened: as §1

CDK6 (IPI00023529) = target: T4, CDK6 (IPI00023529) (Homo sapiens, UniProt Q00534)
T4 construct: endogenous in cells; host or cells: HeLa S3
Procedure, shortened: as §1

MAP2K6 (IPI00003814) = target: T5, MAP2K6 (IPI00003814) (Homo sapiens, UniProt P52564)
T5 construct: endogenous in cells; host or cells: HeLa S3
T5 sequence (P52564 1-334): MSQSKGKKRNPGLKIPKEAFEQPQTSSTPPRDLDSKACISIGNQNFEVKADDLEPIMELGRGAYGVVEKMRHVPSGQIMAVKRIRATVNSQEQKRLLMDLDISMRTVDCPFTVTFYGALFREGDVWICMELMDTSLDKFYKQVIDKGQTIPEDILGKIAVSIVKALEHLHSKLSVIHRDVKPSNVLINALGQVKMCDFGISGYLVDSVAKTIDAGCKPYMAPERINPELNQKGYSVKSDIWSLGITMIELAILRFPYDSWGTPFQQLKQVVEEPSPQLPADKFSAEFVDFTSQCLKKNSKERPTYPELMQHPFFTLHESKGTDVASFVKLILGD
Procedure, shortened: as §1

[3] = target: T6, TAO3 (TAOK3, IPI00410485) (Homo sapiens, UniProt Q9H2K8)
T6 construct: endogenous in cells; host or cells: HeLa S3
T6 sequence (Q9H2K8 1-898): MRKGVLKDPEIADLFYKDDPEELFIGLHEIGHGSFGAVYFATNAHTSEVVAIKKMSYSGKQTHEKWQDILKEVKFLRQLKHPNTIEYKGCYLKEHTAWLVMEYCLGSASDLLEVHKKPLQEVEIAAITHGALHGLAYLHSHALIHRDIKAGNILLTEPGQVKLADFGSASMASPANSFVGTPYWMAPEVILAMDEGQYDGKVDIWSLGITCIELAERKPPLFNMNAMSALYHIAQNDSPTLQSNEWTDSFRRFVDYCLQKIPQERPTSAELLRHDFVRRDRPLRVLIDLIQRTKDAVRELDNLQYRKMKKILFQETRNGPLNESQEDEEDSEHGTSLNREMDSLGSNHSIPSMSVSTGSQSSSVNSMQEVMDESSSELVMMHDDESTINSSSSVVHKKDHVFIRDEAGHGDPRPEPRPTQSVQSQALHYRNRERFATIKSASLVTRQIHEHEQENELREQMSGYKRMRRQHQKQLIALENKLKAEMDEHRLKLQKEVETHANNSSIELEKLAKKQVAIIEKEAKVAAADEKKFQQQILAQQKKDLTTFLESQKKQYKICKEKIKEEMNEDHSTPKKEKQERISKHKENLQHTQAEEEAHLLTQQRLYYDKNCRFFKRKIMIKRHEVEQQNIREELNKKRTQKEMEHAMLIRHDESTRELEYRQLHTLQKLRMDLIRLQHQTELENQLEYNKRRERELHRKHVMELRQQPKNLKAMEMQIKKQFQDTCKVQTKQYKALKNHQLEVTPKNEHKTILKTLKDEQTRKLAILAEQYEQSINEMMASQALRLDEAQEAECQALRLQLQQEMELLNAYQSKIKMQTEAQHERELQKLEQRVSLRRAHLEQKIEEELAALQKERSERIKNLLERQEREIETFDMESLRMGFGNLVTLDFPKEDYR
Procedure, shortened: as §1

LOK (STK10, IPI00304742) = target: T7, LOK (STK10, IPI00304742) (Homo sapiens, UniProt O94804)
T7 construct: endogenous in cells; host or cells: HeLa S3
Procedure, shortened: as §1

PIK3C2A (IPI00002580) = target: T8, PIK3C2A (IPI00002580) (Homo sapiens, UniProt O00443)
T8 construct: endogenous in cells; host or cells: HeLa S3
Procedure, shortened: as §1

[4] = control beads vs first incubation

T1 sequence (P11802 whole entry): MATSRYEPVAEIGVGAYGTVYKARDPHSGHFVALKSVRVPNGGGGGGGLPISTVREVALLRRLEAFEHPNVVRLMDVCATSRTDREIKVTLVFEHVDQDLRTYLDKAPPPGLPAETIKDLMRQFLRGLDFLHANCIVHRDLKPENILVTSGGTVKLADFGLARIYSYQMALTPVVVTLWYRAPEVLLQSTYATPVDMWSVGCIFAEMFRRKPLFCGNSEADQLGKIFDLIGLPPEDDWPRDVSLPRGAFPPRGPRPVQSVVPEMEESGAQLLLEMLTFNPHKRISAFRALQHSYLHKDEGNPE
T7 sequence (O94804 whole entry): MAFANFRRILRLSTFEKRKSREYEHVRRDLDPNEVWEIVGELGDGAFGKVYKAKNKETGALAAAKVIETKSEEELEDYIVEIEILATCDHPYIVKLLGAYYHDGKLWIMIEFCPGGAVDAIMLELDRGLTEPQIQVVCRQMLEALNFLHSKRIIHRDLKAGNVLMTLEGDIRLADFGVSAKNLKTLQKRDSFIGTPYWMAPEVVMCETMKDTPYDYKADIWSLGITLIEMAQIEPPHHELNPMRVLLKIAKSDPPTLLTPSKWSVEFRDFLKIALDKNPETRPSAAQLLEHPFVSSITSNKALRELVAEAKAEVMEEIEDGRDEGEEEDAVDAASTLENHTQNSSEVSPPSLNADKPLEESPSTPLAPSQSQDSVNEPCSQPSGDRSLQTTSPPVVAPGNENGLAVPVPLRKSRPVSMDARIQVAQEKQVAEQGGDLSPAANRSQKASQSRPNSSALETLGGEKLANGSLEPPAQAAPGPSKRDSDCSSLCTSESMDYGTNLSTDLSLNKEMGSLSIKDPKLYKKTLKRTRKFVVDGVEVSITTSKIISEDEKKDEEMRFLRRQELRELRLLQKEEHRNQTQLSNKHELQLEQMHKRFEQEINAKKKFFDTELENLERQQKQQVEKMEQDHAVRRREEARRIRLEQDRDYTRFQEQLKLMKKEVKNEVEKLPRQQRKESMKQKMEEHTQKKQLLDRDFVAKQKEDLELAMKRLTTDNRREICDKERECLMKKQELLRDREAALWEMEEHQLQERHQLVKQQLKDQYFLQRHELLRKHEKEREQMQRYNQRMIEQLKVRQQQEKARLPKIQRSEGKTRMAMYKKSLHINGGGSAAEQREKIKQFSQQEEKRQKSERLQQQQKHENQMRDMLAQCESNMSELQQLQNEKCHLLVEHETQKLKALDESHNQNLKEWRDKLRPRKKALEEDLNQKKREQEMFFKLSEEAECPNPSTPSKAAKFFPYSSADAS
T2 sequence (O75582 whole entry): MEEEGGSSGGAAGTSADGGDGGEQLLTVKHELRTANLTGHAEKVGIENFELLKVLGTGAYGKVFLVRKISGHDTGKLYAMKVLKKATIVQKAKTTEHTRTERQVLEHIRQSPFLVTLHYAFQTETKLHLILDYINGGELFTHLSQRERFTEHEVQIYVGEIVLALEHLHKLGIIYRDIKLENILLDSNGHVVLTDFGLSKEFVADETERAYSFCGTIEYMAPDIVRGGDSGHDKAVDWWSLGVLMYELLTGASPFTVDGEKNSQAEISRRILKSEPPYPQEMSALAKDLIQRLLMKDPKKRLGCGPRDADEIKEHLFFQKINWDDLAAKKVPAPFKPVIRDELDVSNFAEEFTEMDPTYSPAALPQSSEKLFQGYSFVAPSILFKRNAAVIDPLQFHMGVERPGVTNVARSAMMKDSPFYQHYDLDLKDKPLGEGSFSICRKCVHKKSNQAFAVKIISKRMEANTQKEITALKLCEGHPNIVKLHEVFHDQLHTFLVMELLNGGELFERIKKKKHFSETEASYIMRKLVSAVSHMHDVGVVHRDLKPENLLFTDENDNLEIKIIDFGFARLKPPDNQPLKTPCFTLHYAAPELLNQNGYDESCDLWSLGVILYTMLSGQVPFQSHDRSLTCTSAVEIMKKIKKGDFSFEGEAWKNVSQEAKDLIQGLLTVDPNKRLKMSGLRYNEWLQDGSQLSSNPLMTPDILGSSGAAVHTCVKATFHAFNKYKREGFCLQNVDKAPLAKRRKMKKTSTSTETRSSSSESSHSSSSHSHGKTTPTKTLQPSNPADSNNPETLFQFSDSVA
T4 sequence (Q00534 whole entry): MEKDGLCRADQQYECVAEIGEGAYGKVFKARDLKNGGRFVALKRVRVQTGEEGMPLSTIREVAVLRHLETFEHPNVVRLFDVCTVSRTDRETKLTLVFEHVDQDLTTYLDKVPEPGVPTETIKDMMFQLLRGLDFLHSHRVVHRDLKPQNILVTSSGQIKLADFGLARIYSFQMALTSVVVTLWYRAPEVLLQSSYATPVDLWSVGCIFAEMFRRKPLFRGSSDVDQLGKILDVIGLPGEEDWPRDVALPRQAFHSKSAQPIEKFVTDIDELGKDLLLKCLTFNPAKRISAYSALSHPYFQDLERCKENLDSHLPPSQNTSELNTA
T8 sequence (O00443 whole entry): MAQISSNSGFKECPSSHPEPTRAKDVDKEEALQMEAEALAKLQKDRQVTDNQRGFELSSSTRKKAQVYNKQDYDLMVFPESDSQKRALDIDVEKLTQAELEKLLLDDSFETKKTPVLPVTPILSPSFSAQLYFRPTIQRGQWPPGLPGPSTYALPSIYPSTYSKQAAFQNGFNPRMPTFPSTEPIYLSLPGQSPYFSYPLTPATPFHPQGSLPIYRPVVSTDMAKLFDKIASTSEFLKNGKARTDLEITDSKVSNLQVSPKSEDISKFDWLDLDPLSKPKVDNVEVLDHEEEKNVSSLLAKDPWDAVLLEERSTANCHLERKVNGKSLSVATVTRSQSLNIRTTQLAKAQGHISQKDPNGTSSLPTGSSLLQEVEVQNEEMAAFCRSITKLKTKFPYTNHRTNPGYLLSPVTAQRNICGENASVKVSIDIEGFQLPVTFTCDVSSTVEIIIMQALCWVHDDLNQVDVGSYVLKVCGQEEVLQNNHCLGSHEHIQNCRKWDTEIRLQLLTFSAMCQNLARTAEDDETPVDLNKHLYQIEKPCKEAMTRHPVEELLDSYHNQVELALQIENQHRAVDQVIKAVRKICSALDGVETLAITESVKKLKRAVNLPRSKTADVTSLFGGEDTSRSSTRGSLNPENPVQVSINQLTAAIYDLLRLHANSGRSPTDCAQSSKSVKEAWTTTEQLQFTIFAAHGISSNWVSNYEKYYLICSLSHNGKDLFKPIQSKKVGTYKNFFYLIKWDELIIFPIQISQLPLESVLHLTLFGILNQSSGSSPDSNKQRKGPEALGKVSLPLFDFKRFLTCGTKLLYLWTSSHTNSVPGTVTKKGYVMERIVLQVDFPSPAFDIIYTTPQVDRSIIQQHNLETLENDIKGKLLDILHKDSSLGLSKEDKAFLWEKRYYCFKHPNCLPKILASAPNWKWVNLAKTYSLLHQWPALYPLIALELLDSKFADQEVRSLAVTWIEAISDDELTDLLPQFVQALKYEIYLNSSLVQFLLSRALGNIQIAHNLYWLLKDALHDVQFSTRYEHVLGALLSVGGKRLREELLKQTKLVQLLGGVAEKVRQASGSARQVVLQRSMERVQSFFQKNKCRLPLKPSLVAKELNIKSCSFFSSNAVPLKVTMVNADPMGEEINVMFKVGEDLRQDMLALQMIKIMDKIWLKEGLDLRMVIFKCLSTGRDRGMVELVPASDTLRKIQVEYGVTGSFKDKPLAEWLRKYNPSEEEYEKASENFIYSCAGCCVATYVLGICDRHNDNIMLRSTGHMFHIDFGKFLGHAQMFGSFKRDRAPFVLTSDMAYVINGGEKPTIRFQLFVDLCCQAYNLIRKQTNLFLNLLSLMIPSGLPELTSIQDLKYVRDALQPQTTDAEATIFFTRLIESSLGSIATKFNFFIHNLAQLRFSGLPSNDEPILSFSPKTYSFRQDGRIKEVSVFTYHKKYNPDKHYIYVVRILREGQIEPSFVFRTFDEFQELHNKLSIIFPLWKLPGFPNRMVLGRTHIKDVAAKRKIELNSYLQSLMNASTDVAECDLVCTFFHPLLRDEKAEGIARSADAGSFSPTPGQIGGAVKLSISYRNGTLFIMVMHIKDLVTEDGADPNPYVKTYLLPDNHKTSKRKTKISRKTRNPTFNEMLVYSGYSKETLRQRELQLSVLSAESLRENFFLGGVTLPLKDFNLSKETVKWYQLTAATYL

Structure (SMILES): CC(C)n1c(=O)ccc2cnc(Nc3ccc(OCCN)cc3)nc21 [V16742]
- r (3 MG/1 MG LYSATE) (CDK4 (IPI00007811); 3 mg vs 1 mg lysate): 1.77
- r (5 h/2.5 h INC. TIME) (CDK4 (IPI00007811); 5 h vs 2.5 h incubation time): 1.03
- rAVERAGE (CTRL/1 INC) (CDK4 (IPI00007811); [4]): 0.07
- Ki (CDK4 (IPI00007811); immobilized VI16742): 511 µM
- rAVERAGE (2 INC/1 INC) (CDK4 (IPI00007811); second vs first incubation): 0.91
- rAVERAGE (CTRL/1 INC) [1, 4]: 0.03
- Ki ([1]; immobilized VI16742): 217 µM
- rAVERAGE (2 INC/1 INC) ([1]; second vs first incubation): 0.81
- r (3 MG/1 MG LYSATE) ([2]; 3 mg vs 1 mg lysate): 2.14
- r (5 h/2.5 h INC. TIME) ([2]; 5 h vs 2.5 h incubation time): 1.33
- rAVERAGE (CTRL/1 INC) [2, 4]: 0.10
- Ki ([2]; immobilized VI16742): 296 µM
- rAVERAGE (2 INC/1 INC) ([2]; second vs first incubation): 0.85
- r (5 h/2.5 h INC. TIME) (CDK6 (IPI00023529); 5 h vs 2.5 h incubation time): 0.75
- rAVERAGE (CTRL/1 INC) (CDK6 (IPI00023529); [4]): 0.10
- Ki (CDK6 (IPI00023529); immobilized VI16742): 119 µM
- rAVERAGE (2 INC/1 INC) (CDK6 (IPI00023529); second vs first incubation): 0.70
- r (3 MG/1 MG LYSATE) (MAP2K6 (IPI00003814); 3 mg vs 1 mg lysate): 2.41
- r (5 h/2.5 h INC. TIME) (MAP2K6 (IPI00003814); 5 h vs 2.5 h incubation time): 1.36
- rAVERAGE (CTRL/1 INC) (MAP2K6 (IPI00003814); [4]): 0.05
- Ki (MAP2K6 (IPI00003814); immobilized VI16742): 178 µM
- rAVERAGE (2 INC/1 INC) (MAP2K6 (IPI00003814); second vs first incubation): 0.77
- r (3 MG/1 MG LYSATE) ([3]; 3 mg vs 1 mg lysate): 2.95
- rAVERAGE (CTRL/1 INC) [3, 4]: 0.09
- Ki ([3]; immobilized VI16742): 116 µM
- rAVERAGE (2 INC/1 INC) ([3]; second vs first incubation): 0.69
- rAVERAGE (CTRL/1 INC) (LOK (STK10, IPI00304742); [4]): 0.07
- Ki (LOK (STK10, IPI00304742); immobilized VI16742): 164 µM
- rAVERAGE (2 INC/1 INC) (LOK (STK10, IPI00304742); second vs first incubation): 0.76
- rAVERAGE (CTRL/1 INC) (PIK3C2A (IPI00002580); [4]): 0.18
- Ki (PIK3C2A (IPI00002580); immobilized VI16742): 104 µM
- rAVERAGE (2 INC/1 INC) (PIK3C2A (IPI00002580); second vs first incubation): 0.67
